In patent publication US20190029960A1, “Therapeutic Nanoparticles Having EGFR Ligands and Methods of Making and Using Same” (Pfizer Inc., priority 2016, published 2019):
*1 amine or outer side, *2 acyl side, *3 side chain or, on linkers, in order; H or OH if unused. Where a SMILES comes first, the peptide text is derived from it. Bridges are numbered along the chain shown (N, C = ends). Side-chain parts run from the residue outwards. [ ]: non-standard residue; d: D form. The star is where a group is joined. Trp(5-OMe) = COc1ccc2[nH]cc(C[C@H](N)C(=O)O)c2c1; DBCO = C1#Cc2ccccc2N(*)Cc2ccccc21; Igl = N[C@H](C(=O)O)C1Cc2ccccc2C1; PEG5 = NCCOCCOCCOCCOCCOCCC(=O)O; Suc = O=C(CCC(=O)[*:2])[*:1]; Pra = C#CC[C@H](N)C(=O)O; Dap = NC[C@H](N)C(=O)O; Acm = CC(=O)NC*

Biological target: T1, Fc tagged recombinant human EGFR (rhEGFR-Fc) (Homo sapiens, UniProt P00533)
T1 construct: purchased R&D Systems 344-ER-050
Format: binding
Settings: for KD/P2 KD: Table 13, point mutations; for Result: Table 14, relative affinity compared to KD of parent P2 (FIG. 16); for KD: Table 6, TGF fragments
Procedure: Surface plasmon resonance (SPR) binding studies were carried out on a Biacore T200 instrument (GE Healthcare). Approximately 10,000 RU of anti-Fc antibody (GE Healthcare, Cat #BR100839) was immobilized via amine coupling on each of flow cells 1 and 2 of a CM5 dextran-coated gold sensor chip (GE Healthcare, Cat #BR100530). […] The contact time and resulting amount of rhEGFR-Fc capture was varied based on the nature of the analyte, namely whether it was a peptide or nanoparticle.
Peptide binding assays were carried out in 10 mM PBS buffer supplemented with 0.05% surfactant P20 and 5% DMSO by volume, at 25° C. Peptides were injected over the rhEGFR-Fc surface for 60 s, followed by dissociation (buffer injection) for 60 s and regeneration with a 10 s pulse of 3M MgCl2. A fresh rhEGFR-Fc surface was generated for each concentration of each peptide tested. Peptide binding data was analyzed by fitting to a 1:1 Langmuir kinetic model to obtain the on-rate (ka), off-rate (kd) and/or equilibrium binding constant (KD) of the interaction.

| Compound | KD | also measured |
| --- | --- | --- |
| CC(=O)N[C@@H](CC(=O)O)C(=O)N[C@@H](C)C(=O)N[C@H]1CSSC[C@@H](C(=O)N[C@@H](CC(C)C)C(=O)N[C@@H](CCC(N)=O)C(=O)NCC(=O)NCC(=O)N[C@@H](CCCCNC(=O)CCOCCOCCOCCOCCOCCNC(=O)CCC(=O)N2Cc3ccccc3C#Cc3ccccc32)C(N)=O)NC(=O)[C@H](CCC(=O)O)NC(=O)[C@H](CCCNC(=N)N)NC(=O)CNC(=O)[C@H](Cc2c[nH]c3ccccc23)NC(=O)[C@H](C(C)C)NC(=O)[C@H](CCC(=O)O)NC(=O)[C@H](Cc2c[nH]c3ccccc23)NC(=O)[C@H]([C@@H](C)O)NC1=O [Peptide P2-2] |  | binding of free peptide to EGFR by SPR, in words: improved affinity relative to the parent peptide |
| C#CC[C@H](NC(=O)CNC(=O)CNC(=O)[C@H](CCC(N)=O)NC(=O)[C@H](CC(C)C)NC(=O)[C@@H]1CSSC[C@H](NC(=O)[C@@H]2CCCN2C(=O)[C@@H](N)CC(=O)O)C(=O)N[C@@H]([C@@H](C)O)C(=O)N[C@@H](Cc2ccccc2)C(=O)N[C@@H](CCC(=O)O)C(=O)N[C@@H](C(C)C)C(=O)N[C@@H](Cc2c[nH]c3ccccc23)C(=O)NCC(=O)N[C@@H](CCCNC(=N)N)C(=O)N[C@@H](CCC(=O)O)C(=O)N1)C(=O)NCC(N)=O [Peptide P2-29] (H-DPCTFEVWGRECLQGG[Pra]G-NH2; disulfide 3-12) |  | KD/P2 KD: 9.24 |
| CC(=O)N[C@@H](CC(=O)O)C(=O)N1CCC[C@H]1C(=O)N[C@@H]1C(=O)N[C@@H]([C@@H](C)O)C(=O)N[C@@H](Cc2c[nH]c3ccccc23)C(=O)N[C@@H](CCC(=O)O)C(=O)N[C@@H](C(C)C)C(=O)N[C@@H](Cc2c[nH]c3ccccc23)C(=O)NCC(=O)N[C@@H](CCCNC(=N)N)C(=O)N[C@@H](CCC(=O)O)C(=O)N[C@H](C(=O)N[C@@H](CC(C)C)C(=O)N[C@@H](CCC(N)=O)C(=O)NCC(=O)NCC(=O)N[C@@H](CCCCNC(=O)CCOCCOCCOCCOCCOCCNC(=O)CCC(=O)N2Cc3ccccc3C#Cc3ccccc32)C(N)=O)C(C)(C)SSC1(C)C [Peptide P2-55] |  | binding of free peptide to EGFR by SPR, in words: improved affinity relative to the parent peptide; Result: 1.18 |
| COc1ccc2[nH]cc(C[C@@H]3NC(=O)[C@H](C(C)C)NC(=O)[C@H](CCC(=O)O)NC(=O)[C@H](C4Cc5ccccc5C4)NC(=O)[C@H]([C@@H](C)O)NC(=O)[C@@H](NC(=O)[C@@H]4CCCN4C(=O)[C@H](CC(=O)O)NC(C)=O)CSSC[C@@H](C(=O)N[C@@H](CC(C)C)C(=O)N[C@@H](CCC(N)=O)C(=O)NCC(=O)NCC(=O)N[C@@H](CCCCNC(=O)CCOCCOCCOCCOCCOCCNC(=O)CCC(=O)N4Cc5ccccc5C#Cc5ccccc54)C(N)=O)NC(=O)[C@H](CCC(=O)O)NC(=O)[C@H](CCCNC(=N)N)NC(=O)CNC3=O)c2c1 [Peptide P2-102] (Ac-DPCT[Igl]EV[Trp(5-OMe)]GRECLQGGK([PEG5-Suc-DBCO])-NH2; disulfide 3-12) |  | binding of free peptide to EGFR by SPR, in words: improved affinity relative to the parent peptide |
| C#CC[C@H](NC(=O)CN)C(=O)NCC(=O)NCC(=O)N[C@@H](C)C(=O)N[C@@H](CC(=O)O)C(=O)N[C@@H](CC(C)C)C(=O)N[C@@H](CC(C)C)C(=O)N[C@@H](C)C(=O)N[C@H](C(=O)N[C@H](C(=O)N[C@@H](C)C(=O)N[C@@H](C)C(N)=O)C(C)C)C(C)C [TGFf-4] (H-G[Pra]GGADLLAVVAA-NH2) | No binding |  |
| C#CC[C@H](NC(=O)CN)C(=O)NCC(=O)NCC(=O)N[C@@H](C)C(=O)N[C@@H](CCCNC(=N)N)C(=O)N[C@@H](CS)C(=O)N[C@@H](CCC(=O)O)C(=O)N[C@@H](Cc1c[nH]cn1)C(=O)N[C@@H](C)C(=O)N[C@@H](CC(=O)O)C(=O)N[C@@H](C)C(=O)N[C@@H](CC(=O)O)C(=O)N[C@@H](CC(C)C)C(N)=O [TGFf-5] (H-G[Pra]GGARCEHADADL-NH2) | No binding |  |
| C#CC[C@H](NC(=O)CN)C(=O)NCC(=O)NCC(=O)N[C@@H](CO)C(=O)NCC(=O)N[C@@H](Cc1ccc(O)cc1)C(=O)N[C@H](C(=O)NCC(=O)N[C@@H](C)C(=O)N[C@@H](CCCNC(=N)N)C(=O)N[C@@H](CS)C(=O)N[C@@H](CCC(=O)O)C(=O)N[C@@H](Cc1c[nH]cn1)C(N)=O)C(C)C [TGFf-6] (H-G[Pra]GGSGYVGARCEH-NH2) | No binding |  |
| C#CC[C@H](NC(=O)CN)C(=O)NCC(=O)NCC(=O)N[C@@H](C)C(=O)N[C@@H](CSCNC(C)=O)C(=O)N[C@H](C(=O)N[C@@H](CS)C(=O)N[C@@H](Cc1c[nH]cn1)C(=O)N[C@@H](CO)C(=O)NCC(=O)N[C@@H](Cc1ccc(O)cc1)C(=O)N[C@H](C(=O)NCC(N)=O)C(C)C)C(C)C [TGFf-7] (H-G[Pra]GGAC(Acm)VCHSGYVG-NH2) | No binding |  |
| C#CC[C@H](NC(=O)CN)C(=O)NCC(=O)NCC(=O)N[C@@H](CCC(N)=O)C(=O)N[C@@H](CCC(=O)O)C(=O)N[C@@H](CC(=O)O)C(=O)N[C@@H](CCCCN)C(=O)N1CCC[C@H]1C(=O)N[C@@H](C)C(=O)N[C@@H](CSCNC(C)=O)C(=O)N[C@H](C(=O)N[C@@H](CS)C(=O)N[C@@H](Cc1c[nH]cn1)C(N)=O)C(C)C [TGFf-8, H2N-G-Par-GG-QEDKPAC(Acm)VCH-CONH2] (H-G[Pra]GGQEDKPAC(Acm)VCH-NH2) | No binding |  |
| C#CC[C@H](NC(=O)CN)C(=O)NCC(=O)NCC(=O)N[C@@H](CS)C(=O)N[C@@H](CCCNC(=N)N)C(=O)N[C@@H](Cc1ccccc1)C(=O)N[C@@H](CC(C)C)C(=O)N[C@H](C(=O)N[C@@H](CCC(N)=O)C(=O)N[C@@H](CCC(=O)O)C(=O)N[C@@H](CC(=O)O)C(=O)N[C@@H](CCCCN)C(=O)N1CCC[C@H]1C(N)=O)C(C)C [TGFf-9] (H-G[Pra]GGCRFLVQEDKP-NH2) | No binding |  |
| C#CC[C@H](NC(=O)CN)C(=O)NCC(=O)NCC(=O)N[C@@H](CSCNC(C)=O)C(=O)N[C@@H](Cc1ccccc1)C(=O)N[C@@H](Cc1c[nH]cn1)C(=O)NCC(=O)N[C@H](C(=O)N[C@@H](CS)C(=O)N[C@@H](CCCNC(=N)N)C(=O)N[C@@H](Cc1ccccc1)C(=O)N[C@H](C(N)=O)C(C)C)[C@@H](C)O [TGFf-10] (H-G[Pra]GGC(Acm)FHGTCRFV-NH2) | No binding |  |
| C#CC[C@H](NC(=O)CN)C(=O)NCC(=O)NCC(=O)N[C@@H](CO)C(=O)N[C@@H](Cc1c[nH]cn1)C(=O)N[C@H](C(=O)N[C@@H](CCC(N)=O)C(=O)N[C@@H](Cc1ccccc1)C(=O)N[C@@H](CS)C(=O)N[C@@H](Cc1ccccc1)C(=O)N[C@@H](Cc1c[nH]cn1)C(=O)NCC(=O)N[C@H](C(N)=O)[C@@H](C)O)[C@@H](C)O [TGFf-11] (H-G[Pra]GGSHTQFCFHGT-NH2) | No binding |  |
| C#CC[C@H](NC(=O)CN)C(=O)NCC(=O)NCC(=O)N[C@@H](CC(N)=O)C(=O)N[C@@H](CC(=O)O)C(=O)N[C@@H](CS)C(=O)N1CCC[C@H]1C(=O)N[C@@H](CC(=O)O)C(=O)N[C@@H](CO)C(=O)N[C@@H](Cc1c[nH]cn1)C(=O)N[C@H](C(=O)N[C@@H](CCC(N)=O)C(=O)N[C@@H](Cc1ccccc1)C(N)=O)[C@@H](C)O [TGFf-12] (H-G[Pra]GGNDCPDSHTQF-NH2) | No binding |  |
| C#CC[C@H](NC(=O)CN)C(=O)NCC(=O)NCC(=O)N[C@@H](Cc1c[nH]c2ccccc12)C(=O)N[C@@H](CO)C(=O)N[C@@H](Cc1c[nH]cn1)C(=O)N[C@@H](Cc1ccccc1)C(=O)N[C@@H](CC(N)=O)C(=O)N[C@@H](CC(=O)O)C(=O)N[C@@H](CS)C(=O)N1CCC[C@H]1C(=O)N[C@@H](CC(=O)O)C(N)=O [TGFf-13] (H-G[Pra]GGWSHFNDCPD-NH2) | No binding |  |
| C#CC[C@H](NC(=O)CN)C(=O)NCC(=O)NCC(=O)N[C@@H](C)C(=O)N[C@@H](CCCNC(=N)N)C(=O)N[C@@H](CS)C(=O)N[C@@H](Cc1c[nH]cn1)C(=O)N[C@@H](CCC(=O)O)C(=O)N[C@@H](Cc1c[nH]cn1)C(=O)N[C@@H](C)C(=O)N[C@@H](CC(=O)O)C(=O)N[C@@H](CC(C)C)C(=O)N[C@@H](CC(C)C)C(=O)N[C@@H](C)C(N)=O [TGFf-14] (H-G[Pra]GGARCHEHADLLA-NH2) | No binding |  |
| H2N-DPCTWEVFGRECLQ-GG-Par-G-CONH2 [Peptide P2-40] |  | KD/P2 KD: NS at 100 μM |
| H2N-DPCTWEVWARECLQ-GG-Par-G-CONH2 [Peptide P2-41] |  | KD/P2 KD: NS at 100 μM |
| H2N-G-Par-GG-CPDSHTQFC(Acm)FHGTC-CONH2 (H-G[Pra]GGCPDSHTQFC(Acm)FHGTC-NH2; disulfide 5-18; SMILES C#CC[C@H](NC(=O)CN)C(=O)NCC(=O)NCC(=O)N[C@H]1CSSC[C@@H](C(N)=O)NC(=O)[C@H]([C@@H](C)O)NC(=O)CNC(=O)[C@H](Cc2c[nH]cn2)NC(=O)[C@H](Cc2ccccc2)NC(=O)[C@H](CSCNC(C)=O)NC(=O)[C@H](Cc2ccccc2)NC(=O)[C@H](CCC(N)=O)NC(=O)[C@H]([C@@H](C)O)NC(=O)[C@H](Cc2c[nH]cn2)NC(=O)[C@H](CO)NC(=O)[C@H](CC(=O)O)NC(=O)[C@@H]2CCCN2C1=O) [TGFf-3] | Not soluble |  |
| H2N-GDP-Dap-TWEVWGREDLQ-GG-Par-G-CONH2 (H-GDP[Dap]TWEVWGREDLQGG[Pra]G-NH2; lactam 4-13) [Peptide P2-59] |  | Result: No binding |
| H2N-GDP-Dap-TWEVWGREELQ-GG-Par-G-CONH2 (H-GDP[Dap]TWEVWGREELQGG[Pra]G-NH2; lactam 4-13) [Peptide P2-63] |  | Result: No binding |
